Results published in ChEMBL document CHEMBL5518185, “Design, synthesis and antitumor activity of 4-arylamine substituted pyrimidine derivatives as noncovalent EGFR inhibitors overcoming C797S mutation” (Eur J Med Chem, 2024).

Tested on: NCI-H1975
Experiment: Antiproliferative activity against human NCI-H1975 cells assessed as inhibition of cell growth measured after 72 hrs by MTT assay
Type: functional, cell-based
Conditions: NCI-H1975, 72 h

| Structure (SMILES) | IC50 [nM] |
| --- | --- |
| O=C(NO)c1ccsc1Nc1nc(Nc2ccc(N3CCOCC3)cc2)ncc1Br | 2010 |
| COc1cc(Nc2ncc(Cl)c(Nc3ccsc3C(=O)NO)n2)cc(OC)c1OC | 159 |
| COc1cc(N2CCC(N3CCN(C)CC3)CC2)ccc1Nc1ncc(Cl)c(Nc2ccccc2P(C)(C)=O)n1 [BRIGATINIB] | 424 |

More lines, now with the values ahead:

| IC50 [nM] | Structure (SMILES) |
| --- | --- |
| 247 | O=C(NO)c1ccsc1Nc1nc(Nc2ccc(OCCN3CCOCC3)cc2)ncc1Br |
| 276 | O=C(NO)c1ccsc1Nc1nc(Nc2ccc(CCN3CCOCC3)cc2)ncc1Br |
| 249 | O=C(NO)c1ccsc1Nc1nc(Nc2ccc(OCCN3CCOCC3)cc2)ncc1Cl |

Tested on: Epidermal growth factor receptor (Homo sapiens), P00533 [UNDEFINED MUTATION]
Sequence (P00533 whole entry, looked up, change not shown): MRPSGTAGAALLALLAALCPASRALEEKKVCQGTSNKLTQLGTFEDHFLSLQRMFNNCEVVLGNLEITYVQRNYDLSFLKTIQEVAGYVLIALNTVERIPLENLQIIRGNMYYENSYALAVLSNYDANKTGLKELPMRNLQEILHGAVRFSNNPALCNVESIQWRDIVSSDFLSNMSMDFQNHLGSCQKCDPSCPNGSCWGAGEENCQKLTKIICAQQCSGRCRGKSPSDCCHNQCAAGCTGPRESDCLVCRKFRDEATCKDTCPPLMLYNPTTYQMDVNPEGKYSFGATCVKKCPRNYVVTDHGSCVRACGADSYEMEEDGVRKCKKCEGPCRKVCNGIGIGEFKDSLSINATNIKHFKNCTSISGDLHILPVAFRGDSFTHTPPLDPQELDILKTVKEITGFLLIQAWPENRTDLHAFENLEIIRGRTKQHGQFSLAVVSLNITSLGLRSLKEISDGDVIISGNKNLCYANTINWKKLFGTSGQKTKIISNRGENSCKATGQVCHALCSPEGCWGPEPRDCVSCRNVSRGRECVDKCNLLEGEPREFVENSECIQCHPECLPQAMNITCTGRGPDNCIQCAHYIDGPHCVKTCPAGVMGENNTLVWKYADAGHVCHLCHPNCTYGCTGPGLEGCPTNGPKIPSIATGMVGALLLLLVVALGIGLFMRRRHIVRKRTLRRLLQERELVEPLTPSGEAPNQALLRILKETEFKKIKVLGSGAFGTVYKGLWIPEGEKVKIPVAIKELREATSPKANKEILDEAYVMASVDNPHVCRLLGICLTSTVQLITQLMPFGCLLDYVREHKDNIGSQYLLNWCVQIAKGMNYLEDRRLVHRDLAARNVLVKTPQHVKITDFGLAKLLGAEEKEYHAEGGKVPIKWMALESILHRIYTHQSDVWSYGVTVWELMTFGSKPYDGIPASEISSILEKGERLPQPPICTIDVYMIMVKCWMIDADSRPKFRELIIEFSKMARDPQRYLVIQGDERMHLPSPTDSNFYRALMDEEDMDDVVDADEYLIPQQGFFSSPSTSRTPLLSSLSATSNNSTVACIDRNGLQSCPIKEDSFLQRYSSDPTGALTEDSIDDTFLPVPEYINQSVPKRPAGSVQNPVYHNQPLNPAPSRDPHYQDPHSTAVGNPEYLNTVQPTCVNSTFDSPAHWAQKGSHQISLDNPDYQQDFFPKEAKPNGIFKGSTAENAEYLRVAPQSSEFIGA
Conditions: dose 30.0 nM

| Structure (SMILES) | inhibition [%] |
| --- | --- |
| O=C(NO)c1ccsc1Nc1nc(Nc2ccc(N3CCOCC3)cc2)ncc1Br | 12.4 |
| COc1cc(Nc2ncc(Cl)c(Nc3ccsc3C(=O)NO)n2)cc(OC)c1OC | 28.5 |
| COc1cc(N2CCC(N3CCN(C)CC3)CC2)ccc1Nc1ncc(Cl)c(Nc2ccccc2P(C)(C)=O)n1 [BRIGATINIB] | 64.1 |

Now from value to molecule:

| inhibition [%] | Structure (SMILES) |
| --- | --- |
| 19.7 | O=C(NO)c1ccsc1Nc1nc(Nc2ccc(OCCN3CCOCC3)cc2)ncc1Br |
| 32.8 | O=C(NO)c1ccsc1Nc1nc(Nc2ccc(CCN3CCOCC3)cc2)ncc1Br |
| 36.1 | O=C(NO)c1ccsc1Nc1nc(Nc2ccc(OCCN3CCOCC3)cc2)ncc1Cl |

Tested on: HCC827
Experiment: Antiproliferative activity against human HCC827 cells assessed as inhibition of cell growth measured after 72 hrs by MTT assay
Type: functional, cell-based
Conditions: HCC827, 72 h

| Structure (SMILES) | IC50 [nM] |
| --- | --- |
| O=C(NO)c1ccsc1Nc1nc(Nc2ccc(N3CCOCC3)cc2)ncc1Br | 429 |
| COc1cc(Nc2ncc(Cl)c(Nc3ccsc3C(=O)NO)n2)cc(OC)c1OC | 896 |
| COc1cc(N2CCC(N3CCN(C)CC3)CC2)ccc1Nc1ncc(Cl)c(Nc2ccccc2P(C)(C)=O)n1 [BRIGATINIB] | 3 |

The remaining lines, values ahead:

| IC50 [nM] | Structure (SMILES) |
| --- | --- |
| 346 | O=C(NO)c1ccsc1Nc1nc(Nc2ccc(OCCN3CCOCC3)cc2)ncc1Br |
| 37 | O=C(NO)c1ccsc1Nc1nc(Nc2ccc(CCN3CCOCC3)cc2)ncc1Br |
| 70 | O=C(NO)c1ccsc1Nc1nc(Nc2ccc(OCCN3CCOCC3)cc2)ncc1Cl |

Tested on: Epidermal growth factor receptor (Homo sapiens), P00533 [UNDEFINED MUTATION]
Conditions: dose 100.0 nM

| Structure (SMILES) | inhibition [%] |
| --- | --- |
| O=C(NO)c1ccsc1Nc1nc(Nc2ccc(N3CCOCC3)cc2)ncc1Br | 55.9 |
| COc1cc(Nc2ncc(Cl)c(Nc3ccsc3C(=O)NO)n2)cc(OC)c1OC | 60.6 |
| COc1cc(N2CCC(N3CCN(C)CC3)CC2)ccc1Nc1ncc(Cl)c(Nc2ccccc2P(C)(C)=O)n1 [BRIGATINIB] | 89.7 |

More lines, now with the values ahead:

| inhibition [%] | Structure (SMILES) |
| --- | --- |
| 51.3 | O=C(NO)c1ccsc1Nc1nc(Nc2ccc(OCCN3CCOCC3)cc2)ncc1Br |
| 65.5 | O=C(NO)c1ccsc1Nc1nc(Nc2ccc(CCN3CCOCC3)cc2)ncc1Br |
| 66 | O=C(NO)c1ccsc1Nc1nc(Nc2ccc(OCCN3CCOCC3)cc2)ncc1Cl |

Tested on: A549
Experiment: Antiproliferative activity against human A549 cells assessed as inhibition of cell growth measured after 72 hrs by MTT assay
Type: functional, cell-based
Conditions: A549, 72 h

| Structure (SMILES) | IC50 [nM] |
| --- | --- |
| O=C(NO)c1ccsc1Nc1nc(Nc2ccc(N3CCOCC3)cc2)ncc1Br | 358 |
| COc1cc(Nc2ncc(Cl)c(Nc3ccsc3C(=O)NO)n2)cc(OC)c1OC | 1860 |
| COc1cc(N2CCC(N3CCN(C)CC3)CC2)ccc1Nc1ncc(Cl)c(Nc2ccccc2P(C)(C)=O)n1 [BRIGATINIB] | 371 |

The remaining lines, values ahead:

| IC50 [nM] | Structure (SMILES) |
| --- | --- |
| 718 | O=C(NO)c1ccsc1Nc1nc(Nc2ccc(OCCN3CCOCC3)cc2)ncc1Br |
| 650 | O=C(NO)c1ccsc1Nc1nc(Nc2ccc(CCN3CCOCC3)cc2)ncc1Br |
| 557 | O=C(NO)c1ccsc1Nc1nc(Nc2ccc(OCCN3CCOCC3)cc2)ncc1Cl |
